Activity calls are given as the source filed them. The calls are words filed in the database; no cut-off is given here.
Columns and labels:
Rattus norvegicus [1] = experiment: In vivo pentobarbital (30 mg/kg ip)-induced hypnosis in rats after iv administration at a dose of 184 umol; format: functional
Rattus norvegicus [2] = experiment: In vivo pentobarbital (30 mg/kg ip)-induced hypnosis in rats after intracerebroventricular administration at a dose of 3.90 uL; format: functional
[3] = biological target: GABA-B receptor (Homo sapiens) (UniProt Q9UBS5+O75899); experiment: Antagonistic potency against Gamma-aminobutyric acid type B receptor of guinea pig ileum; format: functional, tissue-based; settings: Cavia porcellus, target entry is the homologue from another species
Rattus norvegicus [4] = experiment: In vivo pentobarbital (30 mg/kg ip)-induced hypnosis in rats after iv administration at a dose of 46 umol; format: functional
Rattus norvegicus [5] = experiment: In vivo pentobarbital (30 mg/kg ip)-induced hypnosis in rats after iv administration at a dose of 23 umol; format: functional
Rattus norvegicus [6] = experiment: In vivo pentobarbital (30 mg/kg ip)-induced hypnosis in rats; Moderate dyspnea; format: functional, organism-based
Cavia porcellus [7] = organism: Cavia porcellus; experiment: Effect on ileal tone in guinea pig up to 100 uM; No effect; format: functional
Rattus norvegicus [8] = experiment: In vivo pentobarbital (30 mg/kg ip)-induced hypnosis in rats after intracerebroventricular administration at a dose of 1.95uL; format: functional
Rattus norvegicus [9] = experiment: In vivo pentobarbital (30 mg/kg ip)-induced hypnosis in rats after intracerebroventricular administration at a dose of 7.80 uL; format: functional
Rattus norvegicus [10] = experiment: In vivo pentobarbital (30 mg/kg ip)-induced hypnosis in rats after iv administration at a dose of 92 umol; format: functional
Rattus norvegicus [11] = experiment: In vivo pentobarbital (30 mg/kg ip)-induced hypnosis in rats after intracerebroventricular administration at a dose of 7.80 uL by pretreatment with atropine (1.0 mg/kg iv); format: functional
Cavia porcellus [12] = organism: Cavia porcellus; experiment: Inhibitory activity against L-glutamate decarboxylase treated from 0.01 to 10 mM concentrations of the compound; Inactive
Rattus norvegicus [13] = experiment: In vivo pentobarbital (30 mg/kg ip)-induced hypnosis in rats after intracerebroventricular administration at a dose of 15.6 uL by pretreatment with atropine (1.0 mg/kg iv); format: functional
Cavia porcellus [14] = organism: Cavia porcellus; experiment: Inhibitory activity against L-glutamic decarboxylase treated from 0.01 to 10 mM concentrations of the compound; Inactive
Rattus norvegicus [15] = experiment: In vivo pentobarbital (30 mg/kg ip)-induced hypnosis in rats after iv administration at a dose of 368 umol; format: functional
Rattus norvegicus [16] = experiment: In vivo pentobarbital (30 mg/kg ip)-induced hypnosis in rats after intracerebroventricular administration at a dose of 15.6 uL; format: functional

| Compound | Hypnosis duration (Rattus norvegicus [1]) [min] | Hypnosis duration (Rattus norvegicus [2]) [min] | Hypnosis duration (Rattus norvegicus [4]) [min] | Hypnosis duration (Rattus norvegicus [5]) [min] | Hypnosis duration (Rattus norvegicus [10]) [min] | Ileal activity (Cavia porcellus [7]) | further results |
| --- | --- | --- | --- | --- | --- | --- | --- |
| NCCCC(=O)O [GAMMA-AMINOBUTYRIC ACID] | 128 | 188 | – | – | – | – | – |
| CN1C=CC(CC2C=CN(C)C=C2C(=O)NCCCC(=O)OCc2ccccc2)C(C(=O)NCCCC(=O)OCc2ccccc2)=C1 (centres undefined) | – | – | 257 | 206 | – | – | pD2 [3]: 5.59; Adverse effect (Rattus norvegicus [6]): Moderate dyspnea; Effect (Cavia porcellus [7]): inactive |
| CN1C=CC(CC2C=CN(C)C=C2C(=O)NCCCC(=O)[O-])C(C(=O)NCCCC(=O)[O-])=C1.[Na+].[Na+] (centres undefined) | 80 | 142 | – | – | 149 | inactive | Hypnosis duration (Rattus norvegicus [8]): 147 min; Hypnosis duration (Rattus norvegicus [9]): 60 min; Hypnosis duration (Rattus norvegicus [11]): 184 min; Activity (Cavia porcellus [12]): inactive |
| COS(=O)(=O)[O-].C[n+]1cccc(C(=O)NCCCC(=O)O)c1 | – | – | – | – | – | inactive | Hypnosis duration (Rattus norvegicus [13]): 158 min; Activity (Cavia porcellus [14]): inactive; Hypnosis duration (Rattus norvegicus [15]): 153 min; Hypnosis duration (Rattus norvegicus [16]): 100 min |
| C[n+]1cccc(C(=O)NCCCC(=O)OCc2ccccc2)c1.[I-] | – | – | 207 | 156 | 194 | – | Hypnosis duration (Rattus norvegicus [6]): Moderate dyspnea |

— ChEMBL document CHEMBL1136325, “Synthesis and biological evaluation of GABA derivatives able to cross the blood-brain barrier in rats” (2003)
